Assay results reported in patent US20240158348A1, “HERBICIDAL CYCLIC AMIDES N-SUBSTITUTED WITH A HALOALKYLSULFONYLANILIDE GROUP” (FMC Corporation, priority 2021, published 2024).

Columns and labels:
[1] = system: ragweed (common ragweed, Ambrosia artemisiifolia); assay: Test C postemergence, ragweed; type: in vivo
How it was run: (§1)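 Plants grown in a sand and loam soil blend received the formulated test chemicals either as a preemergence soil-directed spray or postemergence at 2 to 10 cm height. After 10 or 12 greenhouse days, injury was assessed visually, with 100 meaning complete control.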

[2] = system: blackgrass (Alopecurus myosuroides); assay: Test C preemergence, blackgrass; type: in vivo; settings: 0 is no effect, 100 is complete control
How it was run: as §1

rice (Oryza sativa) = assay: Test D flooded paddy test, rice; type: in vivo; parameters: key: 0 = no effect, 100 = complete control; settings: 250 g ai/ha, Flood; applied to paddy water at 2-leaf stage; visual rating after 13 days; scale 0 (no effect) to 100 (complete control)
How it was run: (§2)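 Plants were grown to the 2-leaf stage, then pots were flooded to 3 cm above soil and compounds applied directly into the paddy water, with that depth held throughout. After 13 days in a greenhouse, injury was visually rated against untreated controls on a 0–100 scale (0 no effect, 100 complete control).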

[3] = system: ragweed (common ragweed, Ambrosia artemisiifolia); assay: Test C preemergence, ragweed; type: in vivo; settings: 0 is no effect, 100 is complete control
How it was run: (§3)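 Herbicidal effect was estimated visually on a 0–100 scale 10 or 12 days after spraying. Formulation: non-phytotoxic solvent mixture with surfactant. Timing: directed soil spray after sowing, or postemergence on seedlings bearing one or two leaves.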

[4] = system: ryegrass, Italian (Italian ryegrass, Lolium multiflorum); assay: Test C postemergence, Italian ryegrass; type: in vivo
How it was run: as §1

corn (Zea mays) [5] = assay: Test C preemergence, corn; type: in vivo; settings: 0 is no effect, 100 is complete control
How it was run: as §3

[6] = system: ducksalad (Heteranthera limosa); assay: Test D flooded paddy test, ducksalad; type: in vivo; parameters: key: 0 = no effect, 100 = complete control; settings: 250 g ai/ha, Flood; applied to paddy water at 2-leaf stage; visual rating after 13 days; scale 0 (no effect) to 100 (complete control)
How it was run: as §2

corn (Zea mays) [7] = assay: Test C postemergence, corn; type: in vivo
soybean (Glycine max) [8] = assay: Test C postemergence, soybean; type: in vivo
[9] = system: wheat (Triticum aestivum); assay: Test C postemergence, wheat; type: in vivo
How it was run: as §1

[10] = system: wheat (Triticum aestivum); assay: Test C preemergence, wheat; type: in vivo; settings: 0 is no effect, 100 is complete control
[11] = system: galium (catchweed bedstraw, Galium aparine); assay: Test C postemergence, galium; type: in vivo
[12] = system: foxtail, giant (giant foxtail, Setaria faberi); assay: Test C postemergence, giant foxtail; type: in vivo
[13] = system: horseweed (Erigeron canadensis); assay: Test C postemergence, horseweed; type: in vivo
How it was run: as §1

[14] = system: ryegrass, Italian (Italian ryegrass, Lolium multiflorum); assay: Test C preemergence, Italian ryegrass; type: in vivo; settings: 0 is no effect, 100 is complete control
How it was run: as §1

kochia (Bassia scoparia) [15] = assay: Test C preemergence, kochia; type: in vivo; settings: 0 is no effect, 100 is complete control
How it was run: as §1

[16] = system: oat, wild (wild oat, Avena fatua); assay: Test C preemergence, wild oat; type: in vivo; settings: 0 is no effect, 100 is complete control
How it was run: as §1

[17] = system: oat, wild (wild oat, Avena fatua); assay: Test C postemergence, wild oat; type: in vivo
[18] = system: pigweed, palmer (palmer amaranth, Amaranthus palmeri); assay: Test C preemergence, palmer amaranth; type: in vivo; settings: 0 is no effect, 100 is complete control
How it was run: as §1

soybean (Glycine max) [19] = assay: Test C preemergence, soybean; type: in vivo; settings: 0 is no effect, 100 is complete control
How it was run: as §1

[20] = system: goosegrass (Eleusine indica); assay: Test C preemergence, goosegrass; type: in vivo; settings: 0 is no effect, 100 is complete control
How it was run: as §3

[21] = system: blackgrass (Alopecurus myosuroides); assay: Test C postemergence, blackgrass; type: in vivo; settings: 31 g ai/ha Postemergence; visual injury, 0 to 100 scale (0 no effect, 100 complete control)
How it was run: as §1

[22] = system: barnyardgrass (Echinochloa crusgalli); assay: Test D flooded paddy test, barnyardgrass; type: in vivo; parameters: key: 0 = no effect, 100 = complete control; settings: 250 g ai/ha, Flood; applied to paddy water at 2-leaf stage; visual rating after 13 days; scale 0 (no effect) to 100 (complete control)
How it was run: as §2

[23] = system: pigweed, palmer (palmer amaranth, Amaranthus palmeri); assay: Test C postemergence, palmer amaranth; type: in vivo
How it was run: as §1

[24] = system: goosegrass (Eleusine indica); assay: Test C postemergence, goosegrass; type: in vivo
How it was run: as §1

kochia (Bassia scoparia) [25] = assay: Test C postemergence, kochia; type: in vivo
How it was run: as §1

[26] = system: foxtail, giant (giant foxtail, Setaria faberi); assay: Test C preemergence, giant foxtail; type: in vivo; settings: 0 is no effect, 100 is complete control
How it was run: as §1

[27] = system: blackgrass (Alopecurus myosuroides); assay: Test C postemergence, blackgrass; type: in vivo; settings: 125 g ai/ha Postemergence; 0 is no effect, 100 is complete control
[28] = system: sedge, umbrella (small-flower umbrella sedge, Cyperus difformis); assay: Test D flooded paddy test, umbrella sedge; type: in vivo; parameters: key: 0 = no effect, 100 = complete control; settings: 250 g ai/ha, Flood; applied to paddy water at 2-leaf stage; visual rating after 13 days; scale 0 (no effect) to 100 (complete control)
How it was run: as §2

[29] = 31 g ai/ha Postemergence, visual injury, 0 to 100 scale (0 no effect, 100 complete control)
[30] = 125 g ai/ha Postemergence, 0 is no effect, 100 is complete control

## CCO/N=C1\CCN(c2cc(NS(=O)(=O)C(F)(F)F)c(C)cc2C)C1=O [Compound 12, N-[5-[3-(ethoxyimino)-2-oxo-1-pyrrolidinyl]-2,4-dimethylphenyl]-1,1,1-trifluoromethanesulfonamide]
[1]; [29]
  Ragweed plant response rating: 90
[1]; [30]
  Plant response rating (0 to 100 scale), Ragweed: 90
[2]; 31 g ai/ha Preemergence
  Plant response rating (0 to 100 scale), Blackgrass: 80
[2]; 125 g ai/ha Preemergence
  Plant response rating (0 to 100 scale), Blackgrass: 100
Rice (Oryza sativa)
  Plant response rating, Rice: 40
[3]; 31 g ai/ha Preemergence
  Plant response rating (0 to 100 scale), Ragweed: 100
[3]; 125 g ai/ha Preemergence
  Plant response rating (0 to 100 scale), Ragweed: 100
[4]; [29]
  Ryegrass, Italian plant response rating: 70
[4]; [30]
  Plant response rating (0 to 100 scale), Ryegrass, Italian: 80
Corn (Zea mays) [5]; 31 g ai/ha Preemergence
  Plant response rating (0 to 100 scale), Corn: 70
Corn (Zea mays) [5]; 125 g ai/ha Preemergence
  Plant response rating (0 to 100 scale), Corn: 100
[6]
  Plant response rating, Ducksalad: 100
Corn (Zea mays) [7]; [29]
  Corn plant response rating: 100
Corn (Zea mays) [7]; [30]
  Plant response rating (0 to 100 scale), Corn: 100
Soybean (Glycine max) [8]; [29]
  Soybean plant response rating: 100
Soybean (Glycine max) [8]; [30]
  Plant response rating (0 to 100 scale), Soybean: 100
[9]; [29]
  Wheat plant response rating: 80
[9]; [30]
  Plant response rating (0 to 100 scale), Wheat: 90
[10]; 31 g ai/ha Preemergence
  Plant response rating (0 to 100 scale), Wheat: 90
[10]; 125 g ai/ha Preemergence
  Plant response rating (0 to 100 scale), Wheat: 100
[11]; [29]
  Galium plant response rating: 100
[11]; [30]
  Plant response rating (0 to 100 scale), Galium: 100
[12]; [29]
  Foxtail, Giant plant response rating: 90
[12]; [30]
  Plant response rating (0 to 100 scale), Foxtail, Giant: 90
[13]; [29]
  Horseweed plant response rating: 90
[13]; [30]
  Plant response rating (0 to 100 scale), Horseweed: 100
[14]; 31 g ai/ha Preemergence
  Plant response rating (0 to 100 scale), Ryegrass, Italian: 90
[14]; 125 g ai/ha Preemergence
  Plant response rating (0 to 100 scale), Ryegrass, Italian: 100
Kochia (Bassia scoparia) [15]; 31 g ai/ha Preemergence
  Plant response rating (0 to 100 scale), Kochia: 100
Kochia (Bassia scoparia) [15]; 125 g ai/ha Preemergence
  Plant response rating (0 to 100 scale), Kochia: 100
[16]; 31 g ai/ha Preemergence
  Plant response rating (0 to 100 scale), Oat, Wild: 90
[16]; 125 g ai/ha Preemergence
  Plant response rating (0 to 100 scale), Oat, Wild: 100
[17]; [29]
  Oat, Wild plant response rating: 90
[17]; [30]
  Plant response rating (0 to 100 scale), Oat, Wild: 90
[18]; 31 g ai/ha Preemergence
  Plant response rating (0 to 100 scale), Pigweed, Palmer: 100
[18]; 125 g ai/ha Preemergence
  Plant response rating (0 to 100 scale), Pigweed, Palmer: 100
Soybean (Glycine max) [19]; 31 g ai/ha Preemergence
  Plant response rating (0 to 100 scale), Soybean: 90
Soybean (Glycine max) [19]; 125 g ai/ha Preemergence
  Plant response rating (0 to 100 scale), Soybean: 100
other
  melting point: 201 to 204 °C
[20]; 31 g ai/ha Preemergence
  Plant response rating (0 to 100 scale), Goosegrass: 90
[20]; 125 g ai/ha Preemergence
  Plant response rating (0 to 100 scale), Goosegrass: 100
[21]
  Blackgrass plant response rating: 80
[22]
  Plant response rating, Barnyardgrass: 0
[23]; [29]
  Pigweed, Palmer plant response rating: 80
[23]; [30]
  Plant response rating (0 to 100 scale), Pigweed, Palmer: 100
[24]; [29]
  Goosegrass plant response rating: 100
[24]; [30]
  Plant response rating (0 to 100 scale), Goosegrass: 100
Kochia (Bassia scoparia) [25]; [29]
  Kochia plant response rating: 90
Kochia (Bassia scoparia) [25]; [30]
  Plant response rating (0 to 100 scale), Kochia: 90
[26]; 31 g ai/ha Preemergence
  Plant response rating (0 to 100 scale), Foxtail, Giant: 100
[26]; 125 g ai/ha Preemergence
  Plant response rating (0 to 100 scale), Foxtail, Giant: 100
[27]
  Plant response rating (0 to 100 scale), Blackgrass: 100
[28]
  Plant response rating, Sedge, Umbrella: 100
